Where two headings read alike, the source gives them in different places.
What was measured:
P388/L-PAM leukemia = conditions: for 50-DAY SURV/TOTAL / % ILS / APPROX. NET LOG10 CHANGE IN TUMOR BURDEN AT END OF Rx / MEDIAN DAY OF DEATH: P388/L-PAM, Q1D × 5 (1); for MEDIAN DAY OF DEATH: dying mice only
P388/CPA leukemia = assay: Antitumor activity against IP-implanted P388/CPA leukemia in mice; type: in vivo, murine; conditions: P388/CPA, Q1D × 5 (1)
P388/0 leukemia = conditions: P388/0, Q1D × 5 (1); for MEDIAN DAY OF DEATH: dying mice only
human MX-1 mammary tumor = assay: In vivo antitumor activity vs i.c.-implanted human MX-1 mammary tumor xenograft in athymic mice; conditions: ic MX-1; optimal doses (LD10 or less), schedule QD1-5, administered LP.
P388/BCNU leukemia = assay: Antitumor activity against IP-implanted P388/BCNU leukemia in mice; conditions: P388/BCNU, Q1D × 5 (1); for MEDIAN DAY OF DEATH: dying mice only
patients = patients with advanced solid tumors; one hour infusion for 5 consecutive days; cited from earlier work
[1] = tumor-bearing rats, 14C-penclomedine; cited from earlier work

For `COc1nc(C(Cl)(Cl)Cl)c(Cl)c(OC)c1Cl` [PEN, 3,5-dichloro-2,4-dimethoxy-6-(trichloromethyl)pyridine], the “50-DAY SURV/TOTAL” value (P388/L-PAM leukemia; IP 60.0 mg/kg/dose) was 0/6, the “% ILS” value (P388/L-PAM leukemia; IP 60.0 mg/kg/dose) was 0% and the “APPROX. NET LOG10 CHANGE IN TUMOR BURDEN AT END OF Rx” value (P388/L-PAM leukemia; IP 60.0 mg/kg/dose) was “+1.4”. For the same molecule, the “MEDIAN DAY OF DEATH” value (P388/L-PAM leukemia; IP 60.0 mg/kg/dose) was 14.0, the “50-DAY SURV/TOTAL” value (P388/L-PAM leukemia; IP 90.0 mg/kg/dose) was 0/6 and the “% ILS” value (P388/L-PAM leukemia; IP 90.0 mg/kg/dose) was −8%. The “APPROX. NET LOG10 CHANGE IN TUMOR BURDEN AT END OF Rx” value (P388/L-PAM leukemia; IP 90.0 mg/kg/dose) was “+1.6”, the “MEDIAN DAY OF DEATH” value (P388/L-PAM leukemia; IP 90.0 mg/kg/dose) was 13.0 and the “50-DAY SURV/TOTAL” value (P388/L-PAM leukemia; IP 135.0 mg/kg/dose) was 0/6. The “% ILS” value (P388/L-PAM leukemia; IP 135.0 mg/kg/dose) was −8%, the “APPROX. NET LOG10 CHANGE IN TUMOR BURDEN AT END OF Rx” value (P388/L-PAM leukemia; IP 135.0 mg/kg/dose) was “+1.6” and the “MEDIAN DAY OF DEATH” value (P388/L-PAM leukemia; IP 135.0 mg/kg/dose) was 13.0. For the same molecule, the “activity in the P388/L-PAM tumor model (in words)” value (P388/L-PAM leukemia; mouse, in vivo) was “none of the three showed significant activity”, the “50-DAY SURV/TOTAL” value (P388/CPA leukemia; IP 60.0 mg/kg/dose) was 0/6 and the “% ILS” value (P388/CPA leukemia; IP 60.0 mg/kg/dose) was −5%. For the same molecule, the “APPROX. NET LOG10 CHANGE IN TUMOR BURDEN AT END OF Rx” value (P388/CPA leukemia; IP 60.0 mg/kg/dose) was “+1.7”, the “50-DAY SURV/TOTAL” value (P388/CPA leukemia; IP 90.0 mg/kg/dose) was 0/6 and the “% ILS” value (P388/CPA leukemia; IP 90.0 mg/kg/dose) was −5%. The “APPROX. NET LOG10 CHANGE IN TUMOR BURDEN AT END OF Rx” value (P388/CPA leukemia; IP 90.0 mg/kg/dose) was “+1.7”, the “50-DAY SURV/TOTAL” value (P388/CPA leukemia; IP 135.0 mg/kg/dose) was 0/6 and the “% ILS” value (P388/CPA leukemia; IP 135.0 mg/kg/dose) was −5%. The “APPROX. NET LOG10 CHANGE IN TUMOR BURDEN AT END OF Rx” value (P388/CPA leukemia; IP 135.0 mg/kg/dose) was “+1.7”, the “50-DAY SURV/TOTAL” value (P388/0 leukemia; IP 60.0 mg/kg/dose) was 0/6 and the “% ILS” value (P388/0 leukemia; IP 60.0 mg/kg/dose) was “+31%”. The “APPROX. NET LOG10 CHANGE IN TUMOR BURDEN AT END OF Rx” value (P388/0 leukemia; IP 60.0 mg/kg/dose) was “+0.4”, the “50-DAY SURV/TOTAL” value (P388/0 leukemia; IP 90.0 mg/kg/dose) was 0/6 and the “% ILS” value (P388/0 leukemia; IP 90.0 mg/kg/dose) was “+45%”. The “APPROX. NET LOG10 CHANGE IN TUMOR BURDEN AT END OF Rx” value (P388/0 leukemia; IP 90.0 mg/kg/dose) was −0.8, the “MEDIAN DAY OF DEATH” value (P388/0 leukemia; IP 90.0 mg/kg/dose) was 18.0 and the “50-DAY SURV/TOTAL” value (P388/0 leukemia; IP 135.0 mg/kg/dose) was 0/6. For the same molecule, the “% ILS” value (P388/0 leukemia; IP 135.0 mg/kg/dose) was “+90%”, the “APPROX. NET LOG10 CHANGE IN TUMOR BURDEN AT END OF Rx” value (P388/0 leukemia; IP 135.0 mg/kg/dose) was −4.8 and the “MEDIAN DAY OF DEATH” value (P388/0 leukemia; IP 135.0 mg/kg/dose) was 21.0. The “Median % ILS (based on dying mice only)” value (human MX-1 mammary tumor) was 88%, the Survivors (human MX-1 mammary tumor) was 0/5 and the “50-DAY SURV/TOTAL” value (P388/BCNU leukemia; IP 60.0 mg/kg/dose) was 0/6. For the same molecule, the “% ILS” value (P388/BCNU leukemia; IP 60.0 mg/kg/dose) was −6%, the “APPROX. NET LOG10 CHANGE IN TUMOR BURDEN AT END OF Rx” value (P388/BCNU leukemia; IP 60.0 mg/kg/dose) was “+1.8” and the “MEDIAN DAY OF DEATH” value (P388/BCNU leukemia; IP 60.0 mg/kg/dose) was 8.5. For the same molecule, the “50-DAY SURV/TOTAL” value (P388/BCNU leukemia; IP 90.0 mg/kg/dose) was 0/6, the “% ILS” value (P388/BCNU leukemia; IP 90.0 mg/kg/dose) was 0% and the “APPROX. NET LOG10 CHANGE IN TUMOR BURDEN AT END OF Rx” value (P388/BCNU leukemia; IP 90.0 mg/kg/dose) was “+1.7”. The “MEDIAN DAY OF DEATH” value (P388/BCNU leukemia; IP 90.0 mg/kg/dose) was 9.0, the “50-DAY SURV/TOTAL” value (P388/BCNU leukemia; IP 135.0 mg/kg/dose) was 0/6 and the “% ILS” value (P388/BCNU leukemia; IP 135.0 mg/kg/dose) was “+27%”. The “APPROX. NET LOG10 CHANGE IN TUMOR BURDEN AT END OF Rx” value (P388/BCNU leukemia; IP 135.0 mg/kg/dose) was “+1.2”, the “neurotoxicity (dysmetria, ataxia, vertigo)” value (patients) was “principal dose limiting toxicity” and the “predominant radioactive species in the brain” value [1] was “predominant radioactive species in the brain was penclomedine”.

— patent US6376518B1, “Acyl derivatives of 4-demethylpenclomedine, use thereof and preparation thereof” (Southern Research Institute, priority 1999, dated 2002)
